From ChEMBL document CHEMBL5678818, “Discovery of potent SOS1 inhibitors that block RAS activation via disruption of the RAS-SOS1 interaction” (Proc Natl Acad Sci U S A, 2019)

Tests used:
[1] = target: Mitogen-activated protein kinase 14 (Homo sapiens) (UniProt Q16539); assay: Inhibition of p38-alpha (unknown origin) assessed as residual activity at 1000 nM by KINOMEscan analysis relative to control
[2] = tested on: Epidermal growth factor receptor (Homo sapiens), P00533 [UNDEFINED MUTATION]; assay: Inhibition of EGFR E746-A750del mutant (unknown origin) assessed as residual activity at 1000 nM by KINOMEscan analysis relative to control
[3] = target: cAMP-dependent protein kinase catalytic subunit alpha (Homo sapiens) (UniProt P17612); assay: Inhibition of PKAC-alpha (unknown origin) assessed as residual activity at 1000 nM by KINOMEscan analysis relative to control
[4] = target: Tyrosine-protein kinase JAK2 (Homo sapiens) (UniProt O60674); assay: Inhibition of JAK2 JH1 catalytic domain (unknown origin) assessed as residual activity at 1000 nM by KINOMEscan analysis relative to control
[5] = target: Serine/threonine-protein kinase PAK 2 (Homo sapiens) (UniProt Q13177); assay: Inhibition of PAK2 (unknown origin) assessed as residual activity at 1000 nM by KINOMEscan analysis relative to control
[6] = tested on: Serine/threonine-protein kinase B-raf (Homo sapiens), P15056 [V600E]; assay: Inhibition of BRAF V600E mutant (unknown origin) assessed as residual activity at 1000 nM by KINOMEscan analysis relative to control
[7] = target: Mast/stem cell growth factor receptor Kit (Homo sapiens) (UniProt P10721); assay: Inhibition of autoinhibited KIT (unknown origin) assessed as residual activity at 1000 nM by KINOMEscan analysis relative to control
[8] = target: Non-receptor tyrosine-protein kinase TYK2 (Homo sapiens) (UniProt P29597); assay: Inhibition of TYK2 JH2 pseudokinase domain (unknown origin) assessed as residual activity at 1000 nM by KINOMEscan analysis relative to control
[9] = target: Casein kinase II subunit alpha (Homo sapiens) (UniProt P68400); assay: Inhibition of CSNK2A1 (unknown origin) assessed as residual activity at 1000 nM by KINOMEscan analysis relative to control
[10] = target: T1, Mitogen-activated protein kinase kinase kinase 5 (Homo sapiens) (UniProt Q99683); assay: Inhibition of ASK1 (unknown origin) assessed as residual activity at 1000 nM by KINOMEscan analysis relative to control
T1 sequence (whole entry): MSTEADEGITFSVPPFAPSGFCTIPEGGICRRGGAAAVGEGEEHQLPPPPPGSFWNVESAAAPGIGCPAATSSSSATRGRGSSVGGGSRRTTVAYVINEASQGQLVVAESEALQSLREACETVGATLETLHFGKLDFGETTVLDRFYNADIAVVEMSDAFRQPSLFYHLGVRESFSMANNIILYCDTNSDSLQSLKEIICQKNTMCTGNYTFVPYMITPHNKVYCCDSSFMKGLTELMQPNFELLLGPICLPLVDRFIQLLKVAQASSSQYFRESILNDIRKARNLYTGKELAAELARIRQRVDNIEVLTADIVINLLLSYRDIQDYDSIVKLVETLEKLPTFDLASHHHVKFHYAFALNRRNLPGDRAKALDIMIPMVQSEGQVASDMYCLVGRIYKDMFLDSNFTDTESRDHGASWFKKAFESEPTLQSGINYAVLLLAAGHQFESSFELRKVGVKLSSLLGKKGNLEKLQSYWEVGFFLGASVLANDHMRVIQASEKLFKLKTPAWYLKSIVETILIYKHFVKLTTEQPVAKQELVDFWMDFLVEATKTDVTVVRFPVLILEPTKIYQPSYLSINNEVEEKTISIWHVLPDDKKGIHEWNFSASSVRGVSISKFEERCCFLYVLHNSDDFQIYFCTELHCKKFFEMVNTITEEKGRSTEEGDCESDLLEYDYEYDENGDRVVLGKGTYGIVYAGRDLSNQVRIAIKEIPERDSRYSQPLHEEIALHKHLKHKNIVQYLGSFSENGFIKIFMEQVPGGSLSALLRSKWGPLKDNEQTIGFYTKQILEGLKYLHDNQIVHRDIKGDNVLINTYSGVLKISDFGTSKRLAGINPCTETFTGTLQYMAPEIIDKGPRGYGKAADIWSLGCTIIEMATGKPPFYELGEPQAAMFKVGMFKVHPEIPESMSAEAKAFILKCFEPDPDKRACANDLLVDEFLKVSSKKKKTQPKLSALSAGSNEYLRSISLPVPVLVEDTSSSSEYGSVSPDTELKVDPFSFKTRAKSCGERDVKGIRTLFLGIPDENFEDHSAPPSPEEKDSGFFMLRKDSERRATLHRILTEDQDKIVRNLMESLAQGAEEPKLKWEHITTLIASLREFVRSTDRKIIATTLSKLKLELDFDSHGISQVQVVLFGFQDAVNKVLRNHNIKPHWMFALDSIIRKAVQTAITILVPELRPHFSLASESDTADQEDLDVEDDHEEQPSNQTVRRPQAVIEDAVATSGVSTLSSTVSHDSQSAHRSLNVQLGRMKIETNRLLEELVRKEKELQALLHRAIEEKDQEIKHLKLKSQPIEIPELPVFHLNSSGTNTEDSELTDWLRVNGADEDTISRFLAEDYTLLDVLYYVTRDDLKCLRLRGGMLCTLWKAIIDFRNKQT

[11] = tested on: Phosphatidylinositol 4,5-bisphosphate 3-kinase catalytic subunit alpha isoform (Homo sapiens), P42336 [C420R]; assay: Inhibition of PIK3CA C420R mutant (unknown origin) assessed as residual activity at 1000 nM by KINOMEscan analysis relative to control

Chain of Serine/threonine-protein kinase PAK 2 (Homo sapiens) (Q13177 whole entry): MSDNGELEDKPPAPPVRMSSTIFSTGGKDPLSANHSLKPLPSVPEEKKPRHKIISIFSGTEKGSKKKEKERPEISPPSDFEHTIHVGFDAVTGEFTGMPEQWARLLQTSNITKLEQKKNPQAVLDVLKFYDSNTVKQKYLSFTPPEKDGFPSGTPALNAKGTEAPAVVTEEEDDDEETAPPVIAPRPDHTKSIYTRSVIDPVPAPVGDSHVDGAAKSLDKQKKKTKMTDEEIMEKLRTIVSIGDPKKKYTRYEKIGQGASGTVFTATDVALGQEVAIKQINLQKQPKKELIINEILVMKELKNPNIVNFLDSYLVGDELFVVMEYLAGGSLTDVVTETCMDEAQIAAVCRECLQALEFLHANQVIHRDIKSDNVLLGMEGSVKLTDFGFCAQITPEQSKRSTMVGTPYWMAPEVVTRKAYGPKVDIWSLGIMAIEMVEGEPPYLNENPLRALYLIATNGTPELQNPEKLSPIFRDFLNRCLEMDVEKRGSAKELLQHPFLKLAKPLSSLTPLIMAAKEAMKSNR
Chain of Tyrosine-protein kinase JAK2 (Homo sapiens) (O60674 whole entry, the tested form may be a part): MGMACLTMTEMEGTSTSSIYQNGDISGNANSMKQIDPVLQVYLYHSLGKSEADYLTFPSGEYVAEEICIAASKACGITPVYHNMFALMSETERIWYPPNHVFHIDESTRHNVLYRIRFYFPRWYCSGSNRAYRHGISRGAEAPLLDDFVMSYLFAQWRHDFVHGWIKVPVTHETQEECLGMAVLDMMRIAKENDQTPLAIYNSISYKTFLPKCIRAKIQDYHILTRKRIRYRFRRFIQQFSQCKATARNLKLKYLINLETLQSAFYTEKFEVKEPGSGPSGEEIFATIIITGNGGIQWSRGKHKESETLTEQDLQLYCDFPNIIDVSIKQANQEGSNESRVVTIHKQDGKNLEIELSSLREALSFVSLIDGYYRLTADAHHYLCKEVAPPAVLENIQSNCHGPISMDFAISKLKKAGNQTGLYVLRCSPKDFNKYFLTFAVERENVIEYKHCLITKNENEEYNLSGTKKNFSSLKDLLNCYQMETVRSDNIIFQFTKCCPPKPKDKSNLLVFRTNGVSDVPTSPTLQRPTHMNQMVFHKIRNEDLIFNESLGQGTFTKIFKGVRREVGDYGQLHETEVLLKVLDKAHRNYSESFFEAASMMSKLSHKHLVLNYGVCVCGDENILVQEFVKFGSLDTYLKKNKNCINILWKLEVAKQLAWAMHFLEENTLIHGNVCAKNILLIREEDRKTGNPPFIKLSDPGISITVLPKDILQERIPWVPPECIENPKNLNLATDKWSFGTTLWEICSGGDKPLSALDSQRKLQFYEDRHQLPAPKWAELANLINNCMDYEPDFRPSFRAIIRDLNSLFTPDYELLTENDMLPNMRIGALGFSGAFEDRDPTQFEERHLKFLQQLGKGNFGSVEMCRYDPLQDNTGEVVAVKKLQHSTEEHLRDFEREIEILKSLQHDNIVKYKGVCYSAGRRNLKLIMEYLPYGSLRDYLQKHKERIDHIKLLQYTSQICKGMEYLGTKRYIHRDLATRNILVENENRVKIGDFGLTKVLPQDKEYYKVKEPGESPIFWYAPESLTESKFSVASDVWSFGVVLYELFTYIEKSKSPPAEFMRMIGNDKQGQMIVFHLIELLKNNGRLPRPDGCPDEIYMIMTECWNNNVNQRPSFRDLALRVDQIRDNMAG
Chain of Serine/threonine-protein kinase B-raf (Homo sapiens), P15056 [V600E] (P15056 whole entry V600E): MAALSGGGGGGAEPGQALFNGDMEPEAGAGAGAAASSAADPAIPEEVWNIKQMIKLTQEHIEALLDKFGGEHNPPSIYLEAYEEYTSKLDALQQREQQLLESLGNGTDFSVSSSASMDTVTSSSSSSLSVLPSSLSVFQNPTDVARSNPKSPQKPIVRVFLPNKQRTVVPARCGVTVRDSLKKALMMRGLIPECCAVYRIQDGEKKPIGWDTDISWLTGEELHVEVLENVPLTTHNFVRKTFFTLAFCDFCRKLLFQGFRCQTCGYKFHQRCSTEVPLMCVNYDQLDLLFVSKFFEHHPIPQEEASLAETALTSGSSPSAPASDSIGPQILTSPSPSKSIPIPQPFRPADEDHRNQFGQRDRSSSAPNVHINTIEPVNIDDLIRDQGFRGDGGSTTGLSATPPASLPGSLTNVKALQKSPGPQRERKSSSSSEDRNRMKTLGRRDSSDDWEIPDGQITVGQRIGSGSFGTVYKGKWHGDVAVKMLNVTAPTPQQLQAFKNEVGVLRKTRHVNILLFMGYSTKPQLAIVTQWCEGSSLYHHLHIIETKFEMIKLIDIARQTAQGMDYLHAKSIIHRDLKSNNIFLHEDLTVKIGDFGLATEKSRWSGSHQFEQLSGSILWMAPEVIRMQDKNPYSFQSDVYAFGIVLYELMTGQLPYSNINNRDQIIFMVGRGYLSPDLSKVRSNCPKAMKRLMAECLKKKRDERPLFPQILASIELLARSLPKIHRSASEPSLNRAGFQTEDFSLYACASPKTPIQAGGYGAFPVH
Chain of Mast/stem cell growth factor receptor Kit (Homo sapiens) (P10721 whole entry, the tested form may be a part): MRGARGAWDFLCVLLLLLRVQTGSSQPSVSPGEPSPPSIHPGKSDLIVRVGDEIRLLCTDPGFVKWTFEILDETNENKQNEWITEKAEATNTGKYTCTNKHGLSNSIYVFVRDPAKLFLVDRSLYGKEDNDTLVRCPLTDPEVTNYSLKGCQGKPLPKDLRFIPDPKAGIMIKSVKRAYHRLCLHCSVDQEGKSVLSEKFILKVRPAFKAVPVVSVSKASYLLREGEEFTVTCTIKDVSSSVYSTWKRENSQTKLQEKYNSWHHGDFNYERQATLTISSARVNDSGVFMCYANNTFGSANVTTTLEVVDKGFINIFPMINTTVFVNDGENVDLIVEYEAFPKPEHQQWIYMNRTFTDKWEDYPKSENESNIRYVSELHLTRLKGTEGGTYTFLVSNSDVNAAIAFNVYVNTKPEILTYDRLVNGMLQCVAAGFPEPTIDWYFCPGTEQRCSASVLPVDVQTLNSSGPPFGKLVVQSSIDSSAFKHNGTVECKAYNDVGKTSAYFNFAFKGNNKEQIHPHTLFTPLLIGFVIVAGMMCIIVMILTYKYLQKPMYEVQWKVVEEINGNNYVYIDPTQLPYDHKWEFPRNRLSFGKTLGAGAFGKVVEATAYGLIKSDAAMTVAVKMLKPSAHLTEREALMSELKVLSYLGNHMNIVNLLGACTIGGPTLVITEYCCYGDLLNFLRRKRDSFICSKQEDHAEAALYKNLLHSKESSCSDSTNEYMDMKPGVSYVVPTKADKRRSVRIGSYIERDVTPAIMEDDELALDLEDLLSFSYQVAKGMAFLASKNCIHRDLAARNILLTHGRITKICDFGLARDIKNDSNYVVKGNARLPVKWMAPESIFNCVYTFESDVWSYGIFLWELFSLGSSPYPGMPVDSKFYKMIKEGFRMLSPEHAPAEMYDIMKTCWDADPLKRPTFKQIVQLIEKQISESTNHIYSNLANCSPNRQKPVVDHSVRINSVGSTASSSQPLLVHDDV
Chain of Mitogen-activated protein kinase 14 (Homo sapiens) (Q16539 whole entry): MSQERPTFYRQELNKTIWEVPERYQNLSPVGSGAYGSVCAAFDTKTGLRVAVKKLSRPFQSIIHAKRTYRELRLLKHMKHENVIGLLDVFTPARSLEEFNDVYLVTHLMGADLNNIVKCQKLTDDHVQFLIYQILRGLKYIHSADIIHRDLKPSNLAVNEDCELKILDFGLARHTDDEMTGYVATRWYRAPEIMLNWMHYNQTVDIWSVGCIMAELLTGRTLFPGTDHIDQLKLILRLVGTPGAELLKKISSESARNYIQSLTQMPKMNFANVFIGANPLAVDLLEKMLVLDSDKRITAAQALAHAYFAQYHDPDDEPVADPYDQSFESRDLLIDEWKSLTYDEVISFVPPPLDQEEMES
Chain of Casein kinase II subunit alpha (Homo sapiens) (P68400 whole entry, looked up): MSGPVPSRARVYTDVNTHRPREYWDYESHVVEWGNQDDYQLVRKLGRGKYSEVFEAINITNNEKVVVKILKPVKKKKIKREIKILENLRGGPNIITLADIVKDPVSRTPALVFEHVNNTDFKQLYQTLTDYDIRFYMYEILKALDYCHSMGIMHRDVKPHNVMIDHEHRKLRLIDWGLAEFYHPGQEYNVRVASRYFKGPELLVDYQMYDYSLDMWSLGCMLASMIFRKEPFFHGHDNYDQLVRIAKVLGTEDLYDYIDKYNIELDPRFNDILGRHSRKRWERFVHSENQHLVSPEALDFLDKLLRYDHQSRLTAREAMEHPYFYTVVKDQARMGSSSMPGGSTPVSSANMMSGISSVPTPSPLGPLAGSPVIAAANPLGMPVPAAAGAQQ

SMILES | Activity [1] | Activity [2] | Activity [3] | Activity [4] | Activity [5] | Activity [6] | Activity [7] | Activity [8] | Activity [9] | Activity [10] | Activity [11]
COc1cc2nc(C)nc(N[C@H](C)c3cccc(-c4cn[nH]c4)c3)c2cc1OC | 98% | 100% | 97% | 74% | 67% | 65% | 100% | 80% | 70% | 100% | 82%
COc1cc2ncnc(N[C@H](C)c3cccc4ccccc34)c2cc1OC | 58% | 5.9% | 95% | 89% | 82% | 97% | 93% | 100% | 100% | 76% | 82%
